According to ChEMBL document CHEMBL1124888 (J Med Chem, 1990):

How the values were obtained:
Rattus norvegicus [1] = experiment: Stereotypies was scored by regression analysis, through intraperitoneal route of administration; format: functional; conditions: ip
D(2) dopamine receptor = D(2) dopamine receptor (Rattus norvegicus, UniProt P61169); experiment: The affinity for the Dopamine receptor D2 was assessed by the inhibition of [3H]-spiperone binding in rat striatal membranes in vitro.; format: cell membranes, Membrane
Rattus norvegicus [2] = experiment: Hyperactivity by regression analysis, through intraperitoneal route of administration; format: functional; conditions: ip

Sequence of D(2) dopamine receptor (P61169 whole entry): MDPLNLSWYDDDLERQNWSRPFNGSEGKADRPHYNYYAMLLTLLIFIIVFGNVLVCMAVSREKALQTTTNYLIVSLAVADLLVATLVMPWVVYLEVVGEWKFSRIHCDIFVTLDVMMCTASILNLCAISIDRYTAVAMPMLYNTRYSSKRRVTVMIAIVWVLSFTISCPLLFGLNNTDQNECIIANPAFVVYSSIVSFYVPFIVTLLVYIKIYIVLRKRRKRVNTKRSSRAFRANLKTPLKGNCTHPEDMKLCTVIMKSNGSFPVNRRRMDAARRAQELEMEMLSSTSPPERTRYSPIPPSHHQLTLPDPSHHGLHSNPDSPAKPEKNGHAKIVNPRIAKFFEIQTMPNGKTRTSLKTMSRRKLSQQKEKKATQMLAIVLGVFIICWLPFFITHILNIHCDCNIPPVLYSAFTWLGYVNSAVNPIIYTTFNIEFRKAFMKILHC

Row | SMILES | IC50 (D(2) dopamine receptor) [nM] | ED50 (Rattus norvegicus [1]) [µmol/kg] | ED50 (Rattus norvegicus [2]) [µmol/kg]
1 | CCN1CCC[C@H]1CNC(=O)c1c(O)c(Cl)cc(Cl)c1OC [RACLOPRIDE] | – | 1.8 | 0.13
2 | CCN1CCC[C@H]1CNC(=O)c1cc(Br)cc2c1OCC2 | – | 4.7 | 2
3 | CCN1CCC[C@H]1CNC(=O)c1c(OC)ccc(Br)c1O | – | 0.32 | 0.054
4 | CCN1CCCC1CNC(=O)c1cc(Br)ccc1OC (stereo unspecified) | 46 | 6.7 | 3
5 | CCN1CCC[C@H]1CNC(=O)c1c(O)c(Br)cc(OC)c1OC | – | 0.049 | 0.009
6 | CCN1CCCC1CNC(=O)c1cc(Br)c(OC)cc1OC (stereo unspecified) | 44 | 10.7 | 3.2
7 | CCN1CCC[C@H]1CNC(=O)c1cc(Br)cc2c1OCCO2 | 46 | 12.8 | 3.8
8 | COc1cccc(C(=O)NC2CC3CCC(C2)N3Cc2ccccc2)c1OC (stereo unspecified) | 1.7 | 0.043 | 0.016

Now from value to compound, other results behind:

Row | IC50 (D(2) dopamine receptor) [nM] | SMILES | ED50 (Rattus norvegicus [1]) [µmol/kg] | ED50 (Rattus norvegicus [2]) [µmol/kg]
9 | 145 | CCN1CCC[C@@H]1CNC(=O)c1cc(Br)cc(OC)c1OC | > 20 | > 20
10 | 8210 | CCN1CCCC1CNC(=O)c1cc(Br)cc(OC)c1O (stereo unspecified) | – | –
11 | 5 | COc1cc(Br)cc(C(=O)NC2CCN(Cc3ccccc3)CC2)c1OC | 0.24 | 0.28
12 | 10 | CCN1CCCC1CNC(=O)c1cc(Br)cc(O)c1OC (stereo unspecified) | 2.1 | 1.2
13 | 52 | CCN1CCCC1CNC(=O)c1cccc(OC)c1OC (stereo unspecified) | ~10 | ~10
14 | 1.2 | CCN1CCC[C@H]1CNC(=O)c1cc(Br)cc(OC)c1OC | 0.14 | 0.002
